Data from ChEMBL document CHEMBL3864190, “Discovery of Pyrazolopyrimidine Derivatives as Novel Dual Inhibitors of BTK and PI3Kδ” (ACS Med Chem Lett, 2016).
Values belong to the molecule of their own block, whether it stands above or below them.

How the values were obtained:
[1] = target: T1, Phosphatidylinositol 4,5-bisphosphate 3-kinase catalytic subunit delta isoform (Homo sapiens) (UniProt O00329); experiment: Inhibition of PI3Kdelta (unknown origin) using biotinylated PIP2 as substrate at 100 nM in presence of streptavidin-APC by FRET assay
T1 sequence (whole entry): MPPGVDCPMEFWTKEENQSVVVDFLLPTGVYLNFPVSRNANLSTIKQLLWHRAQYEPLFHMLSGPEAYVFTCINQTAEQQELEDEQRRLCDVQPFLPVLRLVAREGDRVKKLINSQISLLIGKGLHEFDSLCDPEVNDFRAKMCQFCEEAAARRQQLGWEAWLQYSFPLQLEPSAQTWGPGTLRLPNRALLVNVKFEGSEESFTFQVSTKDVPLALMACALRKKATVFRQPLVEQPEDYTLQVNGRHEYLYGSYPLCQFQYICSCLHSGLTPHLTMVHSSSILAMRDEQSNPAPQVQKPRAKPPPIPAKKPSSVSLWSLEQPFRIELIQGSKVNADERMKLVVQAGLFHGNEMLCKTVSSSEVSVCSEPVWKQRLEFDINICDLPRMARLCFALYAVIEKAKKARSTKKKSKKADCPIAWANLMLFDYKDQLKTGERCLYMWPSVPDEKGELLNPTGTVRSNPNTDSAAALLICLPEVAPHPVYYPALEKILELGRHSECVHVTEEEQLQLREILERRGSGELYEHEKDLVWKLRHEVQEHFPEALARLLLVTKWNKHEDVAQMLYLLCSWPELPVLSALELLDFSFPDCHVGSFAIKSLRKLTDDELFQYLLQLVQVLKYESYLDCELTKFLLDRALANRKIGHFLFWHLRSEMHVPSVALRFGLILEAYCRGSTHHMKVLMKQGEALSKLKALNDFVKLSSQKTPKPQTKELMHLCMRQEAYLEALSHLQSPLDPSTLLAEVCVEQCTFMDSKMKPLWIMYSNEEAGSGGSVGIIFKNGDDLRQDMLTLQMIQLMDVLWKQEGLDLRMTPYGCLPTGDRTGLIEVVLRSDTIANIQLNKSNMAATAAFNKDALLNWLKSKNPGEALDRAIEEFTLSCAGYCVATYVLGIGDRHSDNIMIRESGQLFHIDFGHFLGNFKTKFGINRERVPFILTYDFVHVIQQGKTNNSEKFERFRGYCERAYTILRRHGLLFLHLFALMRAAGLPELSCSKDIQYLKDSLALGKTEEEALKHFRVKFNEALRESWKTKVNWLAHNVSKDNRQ

[2] = target: T2, Tyrosine-protein kinase BTK (Homo sapiens, UniProt Q06187); conditions: at 100 nM
[3] = target: T3, Phosphatidylinositol 4,5-bisphosphate 3-kinase catalytic subunit delta isoform (Homo sapiens, UniProt O00329); experiment: Inhibition of PI3Kdelta (unknown origin) using biotinylated PIP2 as substrate in presence of streptavidin-APC by FRET assay
T3 sequence (O00329 whole entry): T1 sequence (whole entry)

[4] = Drug metabolism in mouse liver microsomes assessed as compound oxidation by measuring parent compound remaining at 1 uM after 30 mins in presence of NADPH by LC-MS/MS analysis; assay type: ADME; conditions: for Stability: microsomes, 0.5 h, 1 µM; for remaining at 0.5 h, 1 µM: liver microsomes, read-out: Stability
[5] = Drug metabolism in mouse liver microsomes assessed as UGT-mediated compound glucuronidation by measuring parent compound remaining at 5 uM after 30 mins in presence of UDPGA by LC-MS/MS analysis; assay type: ADME; conditions: for remaining at 0.5 h, 5 µM: liver microsomes, read-out: Stability
[6] = Drug metabolism in human liver microsomes assessed as compound oxidation by measuring parent compound remaining at 1 uM after 30 mins in presence of NADPH by LC-MS/MS analysis; assay type: ADME; conditions: for remaining at 0.5 h, 1 µM: liver microsomes, read-out: Stability
[7] = Drug metabolism in human liver microsomes assessed as UGT-mediated compound glucuronidation by measuring parent compound remaining at 5 uM after 30 mins in presence of UDPGA by LC-MS/MS analysis; assay type: ADME; conditions: read-out: Stability
[8] = Drug metabolism in rat liver microsomes assessed as compound oxidation by measuring parent compound remaining at 1 uM after 30 mins in presence of NADPH by LC-MS/MS analysis; assay type: ADME
[9] = Drug metabolism in dog liver microsomes assessed as compound oxidation by measuring parent compound remaining at 1 uM after 30 mins in presence of NADPH by LC-MS/MS analysis; assay type: ADME, Canis lupus familiaris; conditions: 0.5 h
[10] = Efflux ratio of apparent permeability from basolateral to apical side over apical to basolateral side in human Caco2 cells; assay type: ADME, cell-based; conditions: caco-2
[11] = Protein binding in mouse plasma; assay type: ADME, cell-free
[12] = Clearance in mouse plasma at 2 mg/kg, iv or 10 mg/kg, po by HPLC/MS analysis; assay type: ADME, organism-based; conditions: in vivo
[13] = Apparent volume of distribution in mouse plasma at 2 mg/kg, iv or 10 mg/kg, po by HPLC/MS analysis; assay type: ADME, organism-based; conditions: in vivo
[14] = AUC in mouse plasma at 10 mg/kg, po by HPLC/MS analysis; assay type: ADME, organism-based
[15] = Half life in mouse plasma at 10 mg/kg, po by HPLC/MS analysis; assay type: ADME, organism-based
[16] = Oral bioavailability in mouse plasma at 10 mg/kg by HPLC/MS analysis; assay type: ADME, organism-based
[17] = target: T2, Tyrosine-protein kinase BTK
[18] = Clearance in mouse plasma at 5 mg/kg, iv or 15 mg/kg, po by HPLC/MS analysis; assay type: ADME, organism-based
[19] = Apparent volume of distribution in mouse plasma at 5 mg/kg, iv or 15 mg/kg, po by HPLC/MS analysis; assay type: ADME, organism-based; conditions: read-out: Vz
[20] = AUC in mouse plasma at 15 mg/kg, po by HPLC/MS analysis; assay type: ADME, organism-based
[21] = Half life in mouse plasma at 15 mg/kg, po by HPLC/MS analysis; assay type: ADME, organism-based
[22] = Oral bioavailability in mouse plasma at 15 mg/kg by HPLC/MS analysis; assay type: ADME, organism-based
[23] = Clearance in mouse plasma at 1 mg/kg, iv or 5 mg/kg, po by HPLC/MS analysis; assay type: ADME, organism-based
[24] = Apparent volume of distribution in mouse plasma at 1 mg/kg, iv or 5 mg/kg, po by HPLC/MS analysis; assay type: ADME, organism-based; conditions: read-out: Vz
[25] = AUC in mouse plasma at 5 mg/kg, po by HPLC/MS analysis; assay type: ADME, organism-based
[26] = Half life in mouse plasma at 5 mg/kg, po by HPLC/MS analysis; assay type: ADME, organism-based
[27] = Oral bioavailability in mouse plasma at 5 mg/kg by HPLC/MS analysis; assay type: ADME, organism-based
Homo sapiens [28] = organism: Homo sapiens; experiment: Selectivity ratio of IC50 for PI3Kalpha (unknown origin) to IC50 for PI3Kdelta (unknown origin)
Homo sapiens [29] = organism: Homo sapiens; experiment: Selectivity ratio of IC50 for PI3Kbeta (unknown origin) to IC50 for PI3Kdelta (unknown origin)
Homo sapiens [30] = organism: Homo sapiens; experiment: Selectivity ratio of IC50 for PI3Kgamma (unknown origin) to IC50 for PI3Kdelta (unknown origin)
Homo sapiens [31] = organism: Homo sapiens; experiment: Selectivity ratio of IC50 for human BMX to IC50 for human BTK
Homo sapiens [32] = organism: Homo sapiens; experiment: Selectivity ratio of IC50 for human TEC to IC50 for human BTK

T2 sequence (Q06187 whole entry, canonical isoform): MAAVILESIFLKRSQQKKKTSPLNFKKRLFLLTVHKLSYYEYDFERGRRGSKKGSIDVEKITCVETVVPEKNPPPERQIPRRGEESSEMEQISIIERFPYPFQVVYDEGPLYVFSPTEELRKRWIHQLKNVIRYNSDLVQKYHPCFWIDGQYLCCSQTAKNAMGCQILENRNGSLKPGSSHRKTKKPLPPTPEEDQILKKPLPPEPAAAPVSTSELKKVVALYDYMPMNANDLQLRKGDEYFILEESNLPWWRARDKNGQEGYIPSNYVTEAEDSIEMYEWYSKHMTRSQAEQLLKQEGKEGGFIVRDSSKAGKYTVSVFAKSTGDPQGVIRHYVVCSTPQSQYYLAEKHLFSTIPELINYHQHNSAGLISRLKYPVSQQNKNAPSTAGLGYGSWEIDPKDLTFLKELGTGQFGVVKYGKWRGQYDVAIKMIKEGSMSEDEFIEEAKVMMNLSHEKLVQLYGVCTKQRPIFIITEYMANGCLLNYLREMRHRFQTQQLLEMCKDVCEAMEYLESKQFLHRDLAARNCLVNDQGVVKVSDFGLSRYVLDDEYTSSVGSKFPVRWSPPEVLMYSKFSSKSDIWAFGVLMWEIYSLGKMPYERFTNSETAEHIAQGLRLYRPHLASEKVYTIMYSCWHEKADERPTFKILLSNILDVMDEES

Structure (SMILES): Nc1ncnc2c1c(-c1cc(F)c3c(c1)NCCO3)nn2C1Cc2cc(F)ccc2C1=O (racemic)
- inhibition [1]: 26%
- inhibition [2]: 6.6%

Structure (SMILES): Nc1ccc2c(c1)CC(n1nc(-c3cc(F)c4c(c3)NCCO4)c3c(N)ncnc31)C2 (stereo in doubt; (+)-32) [listing 1 of 2 here]
- IC50 [3]: 47 nM
- Stability [4]: 28%
- remaining at 0.5 h, 5 µM [5]: 93%
- remaining at 0.5 h, 1 µM [6]: 71%
- remaining at 0.5 h, 5 µM [7]: 91%
- remaining at 0.5 h, 1 µM ([8]; liver microsomes, read-out: Stability): 45%
- Stability [9]: 65%
- efflux ratio [10]: 1.3
- fraction unbound ([11]; read-out: PPB (converted)): 0.02
- CL [12]: 24.3 mL/min/kg
- Vz [13]: 0.58 L/kg
- AUC ([14]; plasma, read-out: AUC): 9.28 µM·h
- half-life ([15]; plasma): 1.2 h
- bioavailability ([16]; plasma): 57%
- IC50 [17]: 24 nM

Structure (SMILES): COc1ccc(-c2nn(C3Cc4ccccc4C3)c3ncnc(N)c23)cc1O
- clearance [18]: 31.2 mL/min/kg
- Vd [19]: 6.56 L/kg
- AUC [20]: 2.37 µM·h
- half-life [21]: 6.3 h
- bioavailability [22]: 11%
- remaining at 0.5 h, 1 µM [4]: 14%
- remaining at 0.5 h, 5 µM [5]: 12%
- remaining at 0.5 h, 1 µM [6]: 52%
- remaining at 0.5 h, 5 µM [7]: 7%

Structure (SMILES): Nc1ncnc2c1c(-c1ccc(Br)c(O)c1)nn2C1Cc2ccccc2C1
- clearance [23]: 63.7 mL/min/kg
- Vd [24]: 5.9 L/kg
- AUC [25]: 0.213 µM·h
- half-life [26]: 2.3 h
- bioavailability [27]: 6.9%
- remaining at 0.5 h, 1 µM [4]: 53%
- remaining at 0.5 h, 5 µM [5]: 13%
- remaining at 0.5 h, 1 µM [6]: 66%
- remaining at 0.5 h, 5 µM [7]: 5.2%

Structure (SMILES): Nc1ccc2c(c1)CC(n1nc(-c3cc(F)c4c(c3)NCCO4)c3c(N)ncnc31)C2 (single isomer, unassigned; (-))
- IC50 [3]: 16 nM
- Stability [4]: 11%
- Stability ([5]; microsomes, 0.5 h, 5 µM): 99%
- Stability ([6]; microsomes, 0.5 h, 1 µM): 63%
- Stability ([8]; microsomes, 0.5 h, 1 µM): 46%
- Stability [9]: 32%
- Ratio [10]: 1.7
- PPB [11]: 98%
- CL [12]: 9.83 mL/min/kg
- Vz [13]: 3.44 L/kg
- AUC ([14]; in vivo): 15.2 µM·h
- t1/2 ([15]; in vivo): 1.3 h
- F ([16]; in vivo): 40%
- IC50 [17]: 32 nM

Structure (SMILES): Nc1ncnc2c1c(-c1ccc(Cl)c(O)c1)nn2C1Cc2ccccc2C1
- IC50 [17]: 14 nM

Structure (SMILES): Nc1ncnc2c1c(-c1cc(O)cc(F)c1)nn2C1Cc2ccccc2C1
- IC50 [3]: 8 nM
- clearance [18]: 85 mL/min/kg
- Vd [19]: 6.01 L/kg
- AUC [20]: 0.177 µM·h
- half-life [21]: 3.1 h
- bioavailability [22]: 2.2%
- remaining at 0.5 h, 1 µM [4]: 25%
- remaining at 0.5 h, 5 µM [5]: < 1%
- remaining at 0.5 h, 1 µM [6]: 67%
- remaining at 0.5 h, 5 µM [7]: 1.3%

Structure (SMILES): Nc1cc(-c2nn(C3Cc4ccccc4C3)c3ncnc(N)c23)ccc1F
- inhibition [1]: 8.2%
- remaining at 0.5 h, 5 µM [5]: 92%
- inhibition [2]: 79%

Structure (SMILES): Nc1ncnc2c1c(-c1cc(F)c(F)c(F)c1)nn2C1Cc2ccccc2C1
- inhibition [1]: 21%
- remaining at 0.5 h, 5 µM [5]: 85%
- inhibition [2]: 21%

Next, values leading:

- inhibition [1]: 26%
- remaining at 0.5 h, 5 µM [5]: 97%
- inhibition [2]: 63%
Structure (SMILES): Nc1cc(-c2nn(C3Cc4ccccc4C3)c3ncnc(N)c23)cc(F)c1F

- inhibition [1]: 40%
- remaining at 0.5 h, 5 µM [5]: 98%
- inhibition [2]: 57%
Structure (SMILES): Nc1ncnc2c1c(-c1ccc3c(c1)NCCO3)nn2C1Cc2ccccc2C1

- IC50 [3]: 4 nM
- clearance [18]: 156 mL/min/kg
- Vd [19]: 11.5 L/kg
- AUC [20]: 0.033 µM·h
- half-life [21]: 0.6 h
- bioavailability [22]: 0.8%
Structure (SMILES): Nc1ncnc2c1c(-c1cc(O)cc(Cl)c1)nn2C1Cc2ccccc2C1

- clearance [18]: 122 mL/min/kg
- Vd [19]: 5.45 L/kg
- AUC [20]: 0.211 µM·h
- half-life [21]: 0.8 h
- bioavailability [22]: 3.7%
Structure (SMILES): Nc1ncnc2c1c(-c1ccc(F)c(O)c1)nn2C1Cc2ccccc2C1

- Ratio IC50 (Homo sapiens [28]): 6
- Ratio IC50 (Homo sapiens [29]): 34
- Ratio IC50 (Homo sapiens [30]): 2
- Ratio IC50 (Homo sapiens [31]): 4
- Ratio IC50 (Homo sapiens [32]): 20
Structure (SMILES): Nc1ccc2c(c1)CC(n1nc(-c3cc(F)c4c(c3)NCCO4)c3c(N)ncnc31)C2 (stereo in doubt; (+)-32) [listing 2 of 2 here]
